According to ChEMBL document CHEMBL2074541, “TP-search Transporter Database” (Hepatology, 1999):

Tests used:
Assay type in all cases: functional, cell-based
[1] = target: T1, Solute carrier organic anion transporter family member 1A1 (Rattus norvegicus, UniProt P46720); experiment: (§1) TP_TRANSPORTER: uptake in Oatp1-expressing HeLa cells
T1 sequence (P46720 whole entry): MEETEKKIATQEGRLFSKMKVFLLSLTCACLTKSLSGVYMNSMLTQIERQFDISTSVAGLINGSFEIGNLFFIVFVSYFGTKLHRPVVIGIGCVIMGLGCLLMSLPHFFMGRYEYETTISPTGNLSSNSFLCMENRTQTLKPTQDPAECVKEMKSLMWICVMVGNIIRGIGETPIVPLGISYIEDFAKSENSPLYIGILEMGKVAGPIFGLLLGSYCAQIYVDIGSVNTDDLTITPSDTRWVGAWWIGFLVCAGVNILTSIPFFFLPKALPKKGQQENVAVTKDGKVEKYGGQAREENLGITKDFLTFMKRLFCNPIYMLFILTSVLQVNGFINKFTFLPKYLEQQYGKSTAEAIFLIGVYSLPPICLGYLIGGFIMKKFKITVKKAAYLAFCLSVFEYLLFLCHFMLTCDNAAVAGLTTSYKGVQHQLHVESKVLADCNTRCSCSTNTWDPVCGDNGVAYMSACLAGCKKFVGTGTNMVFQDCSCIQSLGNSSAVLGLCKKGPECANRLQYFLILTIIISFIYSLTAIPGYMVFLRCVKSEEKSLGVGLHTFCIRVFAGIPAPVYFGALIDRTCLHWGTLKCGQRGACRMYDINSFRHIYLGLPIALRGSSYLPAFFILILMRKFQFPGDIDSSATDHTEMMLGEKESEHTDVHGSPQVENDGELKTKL

[2] = substrate: C[C@H](CCC(=O)NCCS(=O)(=O)O)C1CC[C@H]2[C@@H]3C[C@H](O)[C@@H]4C[C@H](O)CC[C@]4(C)[C@H]3CC[C@]12C; experiment: as §1
[3] = substrate: C[C@H](CCC(=O)NCCS(=O)(=O)O)[C@H]1CC[C@H]2[C@@H]3[C@H](O)C[C@@H]4C[C@H](O)CC[C@]4(C)[C@H]3CC[C@]12C; experiment: as §1
[4] = substrate: O=C1OC(c2ccc(O)c(S(=O)(=O)O)c2)(c2ccc(O)c(S(=O)(=O)O)c2)c2c(Br)c(Br)c(Br)c(Br)c21; experiment: as §1

Question: For `C[C@H](CCC(=O)O)[C@H]1CC[C@H]2[C@@H]3C[C@H](O)[C@@H]4C[C@H](O)CC[C@]4(C)[C@H]3CC[C@]12C` [HYODEOXYCHOLIC_ACID], which Activity [1] is on record?
Answer: substrate [+]

Question: For `C[C@H](CCC(=O)NCCS(=O)(=O)O)[C@H]1CC[C@H]2[C@@H]3CC[C@H]4C[C@H](O)CC[C@]4(C)[C@H]3C[C@@H](O)[C@]12C` [TAUROLAGODEOXYCHOLATE], which Activity [1] is on record?
Answer: substrate [+]

Question: How did the Activity [1] turn out when `C[C@H](CCC(=O)NCCS(=O)(=O)O)[C@H]1CC[C@H]2[C@@H]3C[C@@H](O)[C@@H]4C[C@H](O)CC[C@]4(C)[C@H]3CC[C@]12C` [TAUROMUROCHOLATE] was run?
Answer: substrate [+]

B1: Solute carrier organic anion transporter family member 1A1 (Rattus norvegicus) (protein)
chain: T1 sequence (P46720 whole entry)
Question: What does the source list for B1?
Answer: Km [2]: 7.5 µM; Km [3]: 4.9 µM; Km [4]: 3.3 µM
